{"source": "patent US20220177477A1", "about": "(Central China Normal University, priority 2019, published 2022)", "key": {"TRKC": {"biological_target": "T1, TRKC (Homo sapiens, UniProt Q16288)", "T1 construct": "purchased Carna Biosciences 08-197", "T1 sequence (Q16288 32-825 isoform Q16288-3 limits assumed)": "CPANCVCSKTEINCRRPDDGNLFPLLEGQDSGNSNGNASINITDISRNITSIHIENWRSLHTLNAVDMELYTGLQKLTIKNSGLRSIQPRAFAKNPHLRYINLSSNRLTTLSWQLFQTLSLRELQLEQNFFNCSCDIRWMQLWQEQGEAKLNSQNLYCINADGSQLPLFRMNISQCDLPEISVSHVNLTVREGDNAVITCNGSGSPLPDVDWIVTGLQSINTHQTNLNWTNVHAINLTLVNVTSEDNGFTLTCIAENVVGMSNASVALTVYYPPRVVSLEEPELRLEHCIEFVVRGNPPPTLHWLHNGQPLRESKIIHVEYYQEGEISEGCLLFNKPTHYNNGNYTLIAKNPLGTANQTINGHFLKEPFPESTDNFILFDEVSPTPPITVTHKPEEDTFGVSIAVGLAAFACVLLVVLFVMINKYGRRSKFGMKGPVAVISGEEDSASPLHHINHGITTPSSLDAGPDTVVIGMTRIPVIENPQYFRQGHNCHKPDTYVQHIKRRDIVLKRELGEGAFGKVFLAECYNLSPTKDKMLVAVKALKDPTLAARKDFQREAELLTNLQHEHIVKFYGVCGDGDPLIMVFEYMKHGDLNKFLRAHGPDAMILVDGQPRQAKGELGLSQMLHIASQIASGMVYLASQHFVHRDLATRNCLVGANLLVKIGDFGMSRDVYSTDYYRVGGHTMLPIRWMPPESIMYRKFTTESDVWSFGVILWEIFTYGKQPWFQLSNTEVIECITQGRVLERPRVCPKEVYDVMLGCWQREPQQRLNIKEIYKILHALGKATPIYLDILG", "assay": "In vitro biochemical HTRF KinEASE kinase inhibition, TRKC", "settings": "wild-type kinase, final ATP 2.526 μmol/L"}, "[1]": {"assay": "Drug metabolism study in rats, intravenous administration", "settings": "rat"}, "TRKA": {"biological_target": "T2, TRKA (Homo sapiens, UniProt P04629)", "T2 construct": "purchased Carna Biosciences 08-186", "T2 sequence (P04629 33-796)": "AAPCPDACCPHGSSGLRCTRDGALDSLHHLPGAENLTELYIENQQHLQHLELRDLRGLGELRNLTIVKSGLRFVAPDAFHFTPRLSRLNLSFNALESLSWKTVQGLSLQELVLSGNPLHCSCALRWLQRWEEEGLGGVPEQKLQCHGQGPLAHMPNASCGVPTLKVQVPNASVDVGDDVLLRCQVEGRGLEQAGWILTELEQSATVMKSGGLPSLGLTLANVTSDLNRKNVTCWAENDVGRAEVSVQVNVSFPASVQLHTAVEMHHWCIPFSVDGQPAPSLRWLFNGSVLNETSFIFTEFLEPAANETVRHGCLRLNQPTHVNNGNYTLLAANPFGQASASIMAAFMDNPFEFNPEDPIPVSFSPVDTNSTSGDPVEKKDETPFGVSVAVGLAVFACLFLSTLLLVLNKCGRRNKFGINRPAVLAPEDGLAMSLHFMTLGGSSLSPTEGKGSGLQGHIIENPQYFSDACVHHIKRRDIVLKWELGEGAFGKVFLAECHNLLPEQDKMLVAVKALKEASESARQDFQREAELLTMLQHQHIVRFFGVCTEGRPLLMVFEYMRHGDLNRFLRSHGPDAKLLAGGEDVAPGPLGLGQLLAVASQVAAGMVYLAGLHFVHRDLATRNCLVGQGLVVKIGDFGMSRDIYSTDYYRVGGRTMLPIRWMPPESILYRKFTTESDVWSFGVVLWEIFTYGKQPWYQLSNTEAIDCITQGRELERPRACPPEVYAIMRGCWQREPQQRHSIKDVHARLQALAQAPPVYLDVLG", "assay": "In vitro biochemical HTRF KinEASE kinase inhibition, TRKA", "settings": "wild-type kinase, final ATP 3.727 μmol/L; read-out: TRKA IC50"}, "TRKB": {"biological_target": "T3, TRKB (Homo sapiens, UniProt Q16620)", "T3 construct": "purchased Carna Biosciences 08-187", "T3 sequence (Q16620 32-822)": "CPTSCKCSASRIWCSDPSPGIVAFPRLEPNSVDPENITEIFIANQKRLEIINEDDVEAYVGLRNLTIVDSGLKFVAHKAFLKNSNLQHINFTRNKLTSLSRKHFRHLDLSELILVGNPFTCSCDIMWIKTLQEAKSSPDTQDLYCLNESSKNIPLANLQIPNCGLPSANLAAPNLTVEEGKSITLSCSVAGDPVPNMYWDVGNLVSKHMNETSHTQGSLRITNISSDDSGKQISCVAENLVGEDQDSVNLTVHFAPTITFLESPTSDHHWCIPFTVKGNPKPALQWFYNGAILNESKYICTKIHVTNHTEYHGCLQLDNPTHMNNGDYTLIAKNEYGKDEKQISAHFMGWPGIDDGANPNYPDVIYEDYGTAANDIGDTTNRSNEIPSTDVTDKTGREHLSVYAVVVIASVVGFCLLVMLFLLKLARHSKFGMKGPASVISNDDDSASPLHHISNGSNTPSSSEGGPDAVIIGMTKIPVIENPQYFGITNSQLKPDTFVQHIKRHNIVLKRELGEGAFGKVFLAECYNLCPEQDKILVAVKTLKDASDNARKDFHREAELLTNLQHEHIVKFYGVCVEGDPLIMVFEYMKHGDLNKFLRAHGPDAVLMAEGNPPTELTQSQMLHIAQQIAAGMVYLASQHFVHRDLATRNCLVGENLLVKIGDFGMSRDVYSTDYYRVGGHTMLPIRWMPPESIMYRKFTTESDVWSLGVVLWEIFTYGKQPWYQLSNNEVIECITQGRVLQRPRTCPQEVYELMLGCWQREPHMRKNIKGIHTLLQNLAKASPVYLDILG", "assay": "In vitro biochemical HTRF KinEASE kinase inhibition, TRKB", "settings": "wild-type kinase, final ATP 2.56 μmol/L", "procedure,_shortened": "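Human TRKA or TRKB was preincubated 5 min at 25° C with compound, then reacted 30 min at 37° C with 0.2 μmol/L biotinylated TK substrate and ATP (final 3.727 μmol/L for TRKA, 2.56 μmol/L for TRKB) in buffer containing DTT, MnCl2 and MgCl2. HTRF 665/620 nm ratio read after 1 h detection; IC50 from variable-slope fit.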"}, "Human NSCLC H2228": {"system": "Human NSCLC H2228", "assay": "Antitumor activity on nude mouse xenograft tumor model (Test Example 4)", "type": "in vivo, nude mice (BALB/c)", "description": "The efficacy of the compounds of the invention was evaluated by a standard murine model of the transplanted tumor. Human NSCLC H2228 was cultured, collected, and inoculated subcutaneously to 5-6 weeks old female nude mice (BALB/c, Shanghai Ling Chang Biotech, Ltd.). When the tumor volume reached 100-150 mm^3, the animals were randomly divided into a solvent control group ([…] in water) and a compound group (6 animals per group). Animals were subsequently gavaged with the compounds of the examples (corresponding dose, dissolved in […] in water), starting anywhere from 0 to 7 days after tumor cell inoculation, and were performed twice daily in the experiment.\nThe experimental index is to examine the influence of the compound of the embodiment on the growth of the tumor, and the specific index is […].\nTumor diameters were measured twice weekly with a vernier caliper and tumor volume (V) was calculated as:\nV=½×a×b^2 wherein a and b represent length and width, respectively.\nT/C(%)=(T−T0)/(C−C0)×100 where T, C is the tumor volume at the end of the experiment; T0, C0 are tumor volumes at the beginning of the experiment.\nPartial tumor regression (PR) is defined if the tumor shrinks from the initial volume, i.e., T<T0 or C<C0; if the tumor completely disappears, it is defined as complete tumor regression (CR).\nComparison between the two groups of tumor volumes was tested using a two-tailed Student's t test, with P<0.05 defined as statistically significant differences.\nBID below refers to twice daily dosing."}, "TRKA-G595R": {"biological_target": "T4, TRKA-G595R (Homo sapiens, UniProt P04629, G595R)", "T4 construct": "purchased Carna Biosciences", "T4 sequence (P04629 33-796 G595R)": "as the sequence (P04629 33-796) above, with G563R counted along it", "assay": "TRK kinase mutant inhibition (HTRF), TRKA-G595R", "type": "biochemical"}, "TRKC-G696A": {"biological_target": "T5, TRKC-G696A (Homo sapiens, UniProt Q16288, G696A)", "T5 construct": "purchased Carna Biosciences", "T5 sequence (Q16288 32-839 G696A)": "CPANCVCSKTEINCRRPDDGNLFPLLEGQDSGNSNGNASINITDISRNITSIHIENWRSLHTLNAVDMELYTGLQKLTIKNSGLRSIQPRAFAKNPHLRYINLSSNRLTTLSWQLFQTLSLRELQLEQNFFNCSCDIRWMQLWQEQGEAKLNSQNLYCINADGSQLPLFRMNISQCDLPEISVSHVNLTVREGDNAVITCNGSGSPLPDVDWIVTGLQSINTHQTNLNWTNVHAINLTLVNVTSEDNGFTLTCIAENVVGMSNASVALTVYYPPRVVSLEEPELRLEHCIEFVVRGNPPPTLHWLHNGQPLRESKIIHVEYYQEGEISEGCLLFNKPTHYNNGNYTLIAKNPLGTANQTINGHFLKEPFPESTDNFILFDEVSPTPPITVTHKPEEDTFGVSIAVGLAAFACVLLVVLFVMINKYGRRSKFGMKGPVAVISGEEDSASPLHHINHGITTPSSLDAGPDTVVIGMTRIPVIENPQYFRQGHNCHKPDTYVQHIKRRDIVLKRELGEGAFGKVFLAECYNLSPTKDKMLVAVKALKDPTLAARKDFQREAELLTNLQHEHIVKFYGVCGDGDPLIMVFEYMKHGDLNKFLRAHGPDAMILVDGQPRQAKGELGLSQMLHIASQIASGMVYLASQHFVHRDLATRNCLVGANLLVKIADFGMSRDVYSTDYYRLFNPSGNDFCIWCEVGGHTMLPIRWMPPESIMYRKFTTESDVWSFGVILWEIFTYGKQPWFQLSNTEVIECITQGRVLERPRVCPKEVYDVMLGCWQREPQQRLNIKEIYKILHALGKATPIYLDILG", "assay": "TRK kinase mutant inhibition (HTRF), TRKC-G696A", "type": "biochemical"}, "TRKA-F589L": {"biological_target": "T6, TRKA-F589L (Homo sapiens, UniProt P04629, F589L)", "T6 construct": "purchased Carna Biosciences", "T6 sequence (P04629 33-796 F589L)": "as the sequence (P04629 33-796) above, with F557L counted along it", "assay": "TRK kinase mutant inhibition (HTRF), TRKA-F589L", "type": "biochemical"}, "[2]": {"assay": "Drug metabolism study in rats, oral administration", "settings": "rat"}, "TRKC-G623R": {"biological_target": "T7, TRKC-G623R (Homo sapiens, UniProt Q16288, G623R)", "T7 construct": "purchased Carna Biosciences", "T7 sequence (Q16288 32-839 G623R)": "as the sequence (Q16288 32-839 G696A) above, with G592R, A665G counted along it", "assay": "TRK kinase mutant inhibition (HTRF), TRKC-G623R", "type": "biochemical"}, "TRKA-G667C": {"biological_target": "T8, TRKA-G667C (Homo sapiens, UniProt P04629, G667C)", "T8 construct": "purchased Carna Biosciences", "T8 sequence (P04629 33-796 G667C)": "as the sequence (P04629 33-796) above, with G635C counted along it", "assay": "TRK kinase mutant inhibition (HTRF), TRKA-G667C", "type": "biochemical"}, "[3]": {"settings": "50 mg/kg BID D0-7, D14, tumors regressed/animals per group"}}}
{"smiles": "C[C@@H](Nc1ccn2ncc(-c3cnn(CCO)c3)c2n1)c1cc(F)ccc1OCC(F)F", "note": "[Compound 5, (R)-2-(4-(5-((1-(2-(2,2-difluoroethoxy)-5-fluorophenyl)ethyl)amino)pyrazolo [1,5-a]pyrimidin-3-yl)-1H-pyrazol-1-yl) ethanol]", "values": [{"measurement": "IC50", "setting": "TRKC", "value": 11.1, "unit": "nM"}, {"measurement": "Vd", "setting": "[1]; in vivo, iv, 1 mg/kg", "value": 40, "unit": "L/kg"}, {"measurement": "clearance", "setting": "[1]; in vivo, iv, 1 mg/kg", "value": 83.3, "unit": "mL/min/kg"}, {"measurement": "Cmax", "setting": "[1]; intravenous injection 1 mg/kg", "value": 104.1, "unit": "ng/mL"}, {"measurement": "T1/2", "setting": "[1]; intravenous injection 1 mg/kg", "value": 5.7, "unit": "h"}, {"measurement": "AUC(0-t)", "setting": "[1]; plasma, iv, 1 mg/kg", "value": 194, "unit": "ng·h/mL"}, {"measurement": "MRT last", "setting": "[1]; plasma, iv, 1 mg/kg", "value": 3.89, "unit": "h"}, {"measurement": "IC50", "setting": "TRKA", "value": 3.6, "unit": "nM"}, {"measurement": "IC50", "setting": "TRKB", "value": 3.9, "unit": "nM"}, {"measurement": "Partially regression", "setting": "Human NSCLC H2228; [3]", "value": "2/6"}, {"measurement": "complete regression", "setting": "Human NSCLC H2228; [3]", "value": "3/6"}, {"measurement": "Tumor growth inhibition value D14", "setting": "Human NSCLC H2228; 50 mg/kg BID gavage D0-7, dosing stopped from D8, read at D14, 50 mg/kg", "value": 155, "unit": "%"}, {"measurement": "Tumor growth inhibition value D14", "setting": "Human NSCLC H2228; 50 mg/kg BID gavage D0-7, dosing stopped from D8, read at D14, listed as compound 5, 50 mg/kg", "value": 155, "unit": "%"}, {"measurement": "tumor completely regressed D7", "setting": "Human NSCLC H2228; 50 mg/kg BIDx8, D7, tumors regressed/animals per group", "value": "4/6"}, {"measurement": "tumor inhibition rate D7", "setting": "Human NSCLC H2228; 50 mg/kg BIDx8, read at D7", "value": 182, "unit": "%"}, {"measurement": "IC50", "setting": "TRKA-G595R", "value": 0.88, "unit": "nM"}, {"measurement": "IC50", "setting": "TRKC-G696A", "value": 1, "unit": "nM"}, {"measurement": "IC50", "setting": "TRKA-F589L", "value": 0.29, "unit": "nM"}, {"measurement": "bioavailability", "setting": "[2]; in vivo, po, 5 mg/kg", "value": 49.3, "unit": "%"}, {"measurement": "CL", "setting": "[2]; oral 5 mg/kg", "value": 158, "unit": "mL/min/kg"}, {"measurement": "Cmax", "setting": "[2]; oral 5 mg/kg", "value": 217.7, "unit": "ng/mL"}, {"measurement": "T1/2", "setting": "[2]; oral 5 mg/kg", "value": 5.7, "unit": "h"}, {"measurement": "Tmax", "setting": "[2]; oral 5 mg/kg", "value": 0.25, "unit": "h"}, {"measurement": "Vz", "setting": "[2]; oral 5 mg/kg", "value": 79.26, "unit": "L/kg"}, {"measurement": "AUC(0-t)", "setting": "[2]; plasma, po, 5 mg/kg", "value": 479, "unit": "ng·h/mL"}, {"measurement": "MRT last", "setting": "[2]; plasma, po, 5 mg/kg", "value": 3.6, "unit": "h"}, {"measurement": "IC50", "setting": "TRKC-G623R", "value": 0.61, "unit": "nM"}, {"measurement": "IC50", "setting": "TRKA-G667C", "value": 0.95, "unit": "nM"}]}
